Assay results reported in article PMC12345137 (mBio, 2025).
“And” between values parts separate entries of the source, which are not always exact repeats. Equal values may be shown once. “Also recorded” adds a separate entry of the source. Read-outs that look alike come from different tables or passages of the source. Positions of bridges follow the written chain, without caps; N, C: chain ends. Residues, ends and D or L forms follow the SMILES beside them.

Experiments:
S. aureus (SA) agr-I [1] = details: b-lactamase, cited from earlier work
S. aureus (SA) agr-II = system: S. aureus (SA) agr-II; design: method as in ref (5) (a number printed in a supplementary file, which may have a reference list of its own: not looked up in the article's list); details: hemolysis; ref (5); cited from earlier work
S. aureus (SA) agr-III [2] = system: S. aureus (SA) agr-III; design: method as in ref (5) (a number printed in a supplementary file, which may have a reference list of its own: not looked up in the article's list); details: hemolysis; ref (5); cited from earlier work
S. aureus (SA) agr-III [3] = details: b-lactamase, cited from earlier work
[4] = system: S. epidermidis (SE) agr-I; details: fluorescence, ref (11), cited from earlier work
SA AgrC-I = SA AgrC-I (Staphylococcus aureus, UniProt O07911); assay: β-Lactamase assay, reporter strain RN10829 (P2-agrA:P3-blaZ) with pagrC-I; format: cell-based
Chain of SA AgrC-I (O07911 entry or part of it): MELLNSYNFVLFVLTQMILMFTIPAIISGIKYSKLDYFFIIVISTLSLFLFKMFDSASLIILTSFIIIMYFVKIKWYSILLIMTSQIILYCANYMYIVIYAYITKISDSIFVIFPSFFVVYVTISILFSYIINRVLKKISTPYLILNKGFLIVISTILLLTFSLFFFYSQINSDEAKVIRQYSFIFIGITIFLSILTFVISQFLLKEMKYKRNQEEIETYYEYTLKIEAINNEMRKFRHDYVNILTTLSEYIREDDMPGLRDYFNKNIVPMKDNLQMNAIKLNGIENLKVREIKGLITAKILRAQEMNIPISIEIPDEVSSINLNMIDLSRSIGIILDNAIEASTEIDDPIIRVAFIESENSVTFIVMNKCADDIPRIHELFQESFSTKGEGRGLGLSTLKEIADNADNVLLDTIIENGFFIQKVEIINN
Method in brief: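 S. aureus RN10829 (P2-agrA:P3-blaZ) expressing AgrC-I from plasmid, grown in TSB to OD600 0.35–0.40, treated with peptides (10 μM–10 pM) plus cognate AIP (100 nM) for 1 h at 37°C, 200 rpm.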

SA AgrC-III = SA AgrC-III (Staphylococcus aureus, UniProt O33590); assay: β-Lactamase assay, reporter strain RN10829 (P2-agrA:P3-blaZ) with pagrC-III; format: cell-based
Chain of SA AgrC-III (O33590 entry or part of it): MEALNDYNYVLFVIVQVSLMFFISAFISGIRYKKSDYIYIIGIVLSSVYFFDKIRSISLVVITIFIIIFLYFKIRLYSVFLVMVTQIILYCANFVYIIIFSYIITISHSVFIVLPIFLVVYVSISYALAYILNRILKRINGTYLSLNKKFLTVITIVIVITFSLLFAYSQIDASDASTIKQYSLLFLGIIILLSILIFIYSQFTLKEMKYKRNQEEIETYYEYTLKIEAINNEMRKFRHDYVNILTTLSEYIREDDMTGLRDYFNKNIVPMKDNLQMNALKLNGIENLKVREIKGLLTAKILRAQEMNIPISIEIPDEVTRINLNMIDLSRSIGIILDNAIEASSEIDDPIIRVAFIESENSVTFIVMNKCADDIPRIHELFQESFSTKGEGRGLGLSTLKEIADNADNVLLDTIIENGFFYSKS
Method in brief: (§1)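 S. aureus RN10829 P2-agrA:P3-blaZ reporter carrying a plasmid for the matching wild-type AgrC, grown in TSB to OD600 0.35–0.40. Cells met peptides (10 μM–10 pM) plus cognate AIP at 100 nM for 1 h at 37°C, then nitrocefin (33.3 μg/mL) turnover was read at OD486 for 10 min; IC50 from linear rates.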

SA AgrC-II = SA AgrC-II (Staphylococcus aureus, UniProt O33587); assay: β-Lactamase assay, reporter strain RN10829 (P2-agrA:P3-blaZ) with pagrC-II; format: cell-based
Chain of SA AgrC-II (O33587 entry or part of it): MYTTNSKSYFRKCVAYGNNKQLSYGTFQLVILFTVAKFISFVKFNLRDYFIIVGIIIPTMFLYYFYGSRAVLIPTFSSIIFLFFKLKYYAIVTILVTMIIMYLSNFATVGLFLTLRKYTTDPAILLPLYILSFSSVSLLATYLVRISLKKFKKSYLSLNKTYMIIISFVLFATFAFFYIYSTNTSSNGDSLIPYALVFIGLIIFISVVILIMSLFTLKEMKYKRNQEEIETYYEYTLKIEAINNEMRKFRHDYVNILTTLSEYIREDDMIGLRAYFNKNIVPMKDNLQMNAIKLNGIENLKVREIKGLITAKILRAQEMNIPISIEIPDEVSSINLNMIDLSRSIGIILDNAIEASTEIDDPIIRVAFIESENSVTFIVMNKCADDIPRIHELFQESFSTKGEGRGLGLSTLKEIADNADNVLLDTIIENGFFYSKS
Method in brief: as §1

[5] = system: S. aureus agr-I P3-YFP reporter strain; assay: Quorum sensing inhibition resistance development experiment; format: cell-based, Staphylococcus aureus; details: flow cytometry
Description: The next day, YFP expression levels were assessed by flow cytometry (YFP: excitation 500 nm, emission 541 nm), and the overnight cultures were diluted 1:250 in fresh TSB medium containing CAM and 33 or no peptide (final volume 2.0 mL) and incubated overnight at 37°C in a shaking incubator. The procedure was repeated in total for 15 days, and the passaged cultures were subsequently frozen at −80°C. The passaged cultures were inoculated from frozen stocks in 2.0 mL TSB medium containing CAM in 15 mL centrifugal tubes and incubated overnight at 37°C in a shaking incubator.

SA AgrC-IV = SA AgrC-IV (Staphylococcus aureus, UniProt Q309Z2); assay: β-Lactamase assay, reporter strain RN10829 (P2-agrA:P3-blaZ) with pagrC-IV; format: cell-based
Chain of SA AgrC-IV (Q309Z2 entry or part of it): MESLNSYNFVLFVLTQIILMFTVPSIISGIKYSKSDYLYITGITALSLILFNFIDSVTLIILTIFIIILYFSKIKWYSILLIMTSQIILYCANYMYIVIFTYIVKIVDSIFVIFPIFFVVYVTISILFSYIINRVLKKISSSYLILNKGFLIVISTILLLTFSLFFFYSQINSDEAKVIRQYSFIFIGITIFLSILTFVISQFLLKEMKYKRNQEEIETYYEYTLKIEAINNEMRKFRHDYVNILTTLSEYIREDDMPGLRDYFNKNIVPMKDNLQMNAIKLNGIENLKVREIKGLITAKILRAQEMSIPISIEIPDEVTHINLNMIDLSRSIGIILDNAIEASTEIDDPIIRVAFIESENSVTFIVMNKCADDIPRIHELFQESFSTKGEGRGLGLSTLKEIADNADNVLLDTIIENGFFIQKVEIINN
Method in brief: as §1

[6] = system: S. epidermidis (SE) agr-II; details: fluorescence; at 100 nM; ref (11); cited from earlier work
[7] = system: S. epidermidis (SE) agr-III; details: fluorescence; at 10 µM; ref (11); cited from earlier work
S. aureus (SA) agr-I [8] = system: S. aureus (SA) agr-I; design: method as in ref (5) (a number printed in a supplementary file, which may have a reference list of its own: not looked up in the article's list); details: hemolysis; ref (5); cited from earlier work

CC[C@H](C)[C@@H]1NC(=O)[C@H](Cc2ccccc2)NC(=O)[C@H](CC(=O)O)NC(=O)[C@@H](NC(=O)[C@@H](NC(=O)[C@H](CO)NC(=O)[C@@H](N)Cc2ccc(O)cc2)[C@@H](C)O)CSC(=O)[C@H](CCSC)NC1=O [compound 1, S. aureus AIP-I] (H-YSTCDFIM; thioester 4-C)
EC50 (S. aureus (SA) agr-I [1]; ref (3)): 40 nM and 23 nM | EC50 (S. aureus (SA) agr-I [1]; ref (4)): 28 nM | EC50 (S. aureus (SA) agr-I [1]; ref (6)): 11 nM | EC50 (S. aureus (SA) agr-I [1]; ref (7)): 3.21 nM | IC50 (S. aureus (SA) agr-II): 3.34 nM | IC50 (S. aureus (SA) agr-III [2]): 6.12 nM | IC50 (S. aureus (SA) agr-III [3]; ref (2)): 3.1 ± 1.3 nM | IC50 (S. aureus (SA) agr-III [3]; ref (4)): 3 nM | inhibition at 1000 nM, SE agr-I ([4]; at 1000 nM): no inhibition

NCCCC[C@H](N)C(=O)N[C@@H](Cc1ccc(O)cc1)C(=O)N[C@@H](Cc1ccc(O)cc1)C(=O)N1CCC[C@H]1C(=O)N[C@H]1CSC(=O)[C@H](Cc2ccccc2)NC(=O)[C@H](Cc2ccc(O)cc2)NC(=O)CNC(=O)[C@H](Cc2c[nH]c3ccccc23)NC1=O [compound 33, S. simulans AIP-II] (H-KYYPCWGYF; thioester 5-C)
IC50 (SA AgrC-I): 1.9 ± 0.3 nM | IC50 (SA AgrC-III): 198 ± 33 nM | IC50 (SA AgrC-II): 80 ± 7 nM | agr activity during daily passaging for 15 days ([5]; 33 at 2 nM or 100 nM): full repression of agr activity; also recorded: repressed agr activity | susceptibility to QS inhibition after 15 passages compared with non-passaged reporter strain ([5]; passaged cultures treated with 33 (10–0.08 nM)): no change in potency; also recorded: remained equally susceptible | IC50 (SA AgrC-IV): 273 ± 26 nM

NCCCC[C@H](N)C(=O)N[C@@H](Cc1ccc(O)cc1)C(=O)N[C@@H](CC(N)=O)C(=O)N1CCC[C@H]1C(=O)N[C@H]1CSC(=O)[C@H](Cc2ccccc2)NC(=O)[C@H](Cc2ccc(O)cc2)NC(=O)CNC(=O)[C@H](Cc2c[nH]c3ccccc23)NC1=O [compound 34, S. simulans AIP-III] (H-KYNPCWGYF; thioester 5-C)
IC50 (SA AgrC-I): 1.6 ± 0.1 nM | IC50 (SA AgrC-III): 103 ± 5 nM | IC50 (SA AgrC-II): 60 ± 7 nM | IC50 (SA AgrC-IV): 351 ± 60 nM

S. aureus AIP-III D4A [compound 57, reference compound]
IC50 (S. aureus (SA) agr-I [1]; ref (8)): 0.16 ± 0.01 nM | inhibition at 100 nM, SE agr-II [6]: ~ 70% | inhibition at 10 µM, SE agr-III [7]: ~ 25% | IC50 (S. aureus (SA) agr-II): 0.06 nM | IC50 (S. aureus (SA) agr-III [2]): 0.16 nM | inhibition at 10 µM, SE agr-I ([4]; at 10 µM): ~ 25% | IC50 (S. aureus (SA) agr-I [8]): 0.082 nM
